Results reported in publication PMC11098465, “A comparative analysis of peptide-delivered antisense antibiotics using diverse nucleotide mimics” (RNA, 2024).
Where “and” joins values, the source holds several entries; their conditions need not be identical. Equal entries are not always repeated.

Tests used:
[1] = test system: Salmonella; assay: Salmonella growth assay (MIC); assay type: cell-based, Salmonella enterica serovar Typhimurium strain SL1344; settings: for Antibacterial activity (MIC): ASO conjugated to the KFF carrier peptide, ~10^5 cfu/mL in noncation-adjusted MHB, 37°C, OD600, highest concentration 10 µM; for Antibacterial activity (MIC) / Effect of KFF-ASO conjugates on Salmonella growth (in words): 24 h; for Effect of KFF-ASO conjugates on Salmonella growth (in words): up to 10 µM; for Effect of KFF-ASO conjugates on Salmonella growth (in words) / Bactericidal concentration: KFF conjugates; for Bactericidal concentration: spotting of ASO-treated bacterial samples at 24 h
Protocol: Next, we sought to compare the antibacterial efficacy of the ASOs upon delivery into bacterial cells with a KFF carrier peptide. Therefore, we measured the growth kinetics of Salmonella in the presence of the ASOs for 24 h (Fig. 4). Because we have previously shown that the KFF peptide has a minimum inhibitory concentration (MIC) of >10 µM ([Popella et al. 2021]), we choose 10 µM as a cutoff point in our experiments. […] Spotting of the ASO-treated bacterial samples at 24 h confirmed that PMO and PNA were bactericidal at 10 and 1.25 µM, respectively (Supplemental Fig. S6B).
An overnight bacterial cell culture was diluted 1:100 in fresh MHB and grown to OD600 0.5. The culture was then diluted to ∼10^5 cfu/mL in noncation-adjusted MHB. Subsequently, 190 µL bacterial solution was dispensed into a 96-well plate (Thermo Fisher Scientific) along with 10 µL of a 200 µM solution of the ASOs. Growth was monitored by measuring the OD at 600 nm every 20 min in a Synergy H1 plate reader (Biotek) with continuous double-orbital shaking (237 cpm) at 37°C for 24 h.

[2] = test system: 5′ Cy5-labeled acpP target RNA (40 nt); assay: Electrophoretic mobility shift assay (EMSA); assay type: binding, Salmonella; parameters: key to mRNA hybridization (EMSA): +++: Effect strength is represented by additional (+) signs.; ++: Effect strength is represented by additional (+) signs.; Effect strength is represented by additional (+) signs; settings: unconjugated ASO, ASO:RNA 0.3:1 to 2.5:1; for Shift of target mRNA in EMSA (in words): 30 min RT, 15% native PAA gel; for mRNA hybridization (EMSA): summary grade
Protocol: To compare the ability of the unconjugated ASOs to hybridize to the target transcript, we used electrophoretic mobility shift assays (EMSAs), thermal UV melting curves, and microscale thermophoresis (MST). We first conducted EMSAs using a 40 nt target RNA sequence (nt −20 to +20 relative to the acpP translational start codon), which was 5′-labeled with a Cy5 dye. Sequence-specific ASOs were added at defined ASO:RNA ratios, while water or a scrambled PNA (PNAscr) were used as negative controls. We performed these binding studies with unconjugated ASOs, because the KFF carrier peptide is cleaved during transport into the bacterial cytoplasm ([Yavari et al. 2021]). […] The DNA-PTO modification is known to reduce the binding affinity of the ASO to its target RNA ([Chan et al. 2006]), and a 10mer might be too short to mediate interactions under our experimental conditions. To test if an excess of unspecific RNA impacts target binding, we also included samples that contained 1 μg yeast tRNA.
The EMSA was performed with a Cy5 5′-labeled RNA (purchased from Eurofins) encompassing the sequence spanning nucleotides −20 to +20 of acpP relative to the translation start codon. For annealing, TM buffer (10 mM Tris-HCl, 50 mM MgCl2) was used. First, 20 µM RNA was denatured by incubation at 95°C for 5 min followed by placement on ice. Then 1 µL of RNA (spiked with or without 1 µL of yeast tRNA [Ambion at a concentration of 10 mg/mL]) was added to PCR tubes containing 8 µL of water. To this, 1 µL of ASOs at the indicated concentrations (6.25–50 µM) was added to adjust ASO:RNA ratios of 0.3:1 to 2.5:1. As negative control, water was added instead of ASO, while a PNAscr sequence served as sequence-unspecific negative control (Fig. 2; Supplemental Fig. S2). These mixtures were incubated for 30 min at room temperature (RT), followed by the addition of 10 µL 2× gel loading (GL) buffer for subsequent loading on native 15% PAA RNA gel without urea (20 µL/sample; 6 µL of a 50 bp DNA marker + 14 µL 1× GL). The gel was run at 100–120 V for 2–3 h, concomitantly stained with SYBR gold (Thermo Fisher Scientific) for 15 min and imaged on Geldoc (Isogen Life Science B.V.).

[3] = test system: 10 nt long target mRNA (acpP, fully complementary 10mer RNA fragment); assay: Thermal UV melting curves of ASO:RNA duplexes; assay type: binding, Salmonella; settings: unconjugated ASO and 10 nt target RNA, 2 µM each mixed 1:1; 100 mM NaCl, 10 mM phosphate, pH 7.0; UV 260 nm, 10-90°C at 0.5°C/min, five ramps; two-state fit
Protocol: Next, we assessed the melting temperatures of each ASO:RNA duplex across a temperature range of 10°C–90°C (Fig. 3A; Supplemental Fig. S3). In this experiment, we used a fully complementary 10mer RNA fragment instead of the 40 nt long target RNA sequence, because the longer target might form internal secondary structures that could interfere with the measurement of the melting temperature. […] This is in line with previous observations ([Freier and Altmann 1997]) and our EMSA results (Fig. 2). […] The melting temperature of RNA-F and RNA-MOE was around 56°C (Table 1).
Three hundred microliters of 10 nt long target mRNA (2 µM) was mixed with 300 µL of each of the ASOs (2 µM) in phosphate buffer (100 mM NaCl, 10 mM phosphate, pH 7.0). Thermal UV melting curves were recorded at Agilent Cary UV–Vis Multicell Peltier. Before measurement, the samples were overlaid with silicon oil to prevent evaporation during heating. Five temperature ramps with a heating/cooling rate of 0.5°C/min between 10°C and 90°C at 260 nm were collected. All the melting curves were plotted using OriginPro 2023, fit to a two-state transition model with upper and lower baselines to determine Tm as previously reported ([Dietzsch et al. 2022]).

Substance	Antibacterial activity (MIC) [1]	Effect of KFF-ASO conjugates on Salmonella growth (in words) [1]	Shift of target mRNA in EMSA (in words) [2]	Tm of ASO:mRNA complexes [3]	mRNA hybridization (EMSA) [2]	Bactericidal concentration [1]
DNA-PTO: phosphorothioate-modified DNA 10mer ASO, sequence CTCATACTCT, targeting acpP −5 to +5 (DNA, all phosphorothioate, methylation of C not given here)	>10 µM	slight growth retardation was observed at 5 and 10 µM	did not interact with the target mRNA at any of the concentrations tested	25.8 °C and 25.8 ± 0.7 °C		
LNA: 2′–4′-locked RNA 10mer ASO, sequence CTCATACTCT, targeting acpP −5 to +5 (all LNA, backbone and methylation of C not given here)	>10 µM	slight growth retardation was observed at 5 and 10 µM	concentration-dependent shift of the target mRNA, starting at a 0.3:1 ratio of ASO:RNA	87.4 °C and 87.4 ± 2 °C	+++	
PMO: phosphorodiamidate morpholino 10mer ASO, sequence CTCATACTCT, targeting acpP −5 to +5 (all phosphorodiamidate morpholino (PMO))	10 µM		limited binding even at 2.5× excess	41.8 °C and 41.8 ± 0.6 °C	+	10 µM
PNA: peptide nucleic acid 10mer ASO, sequence CTCATACTCT, targeting acpP −5 to +5 (all peptide nucleic acid (PNA))	1.25 µM		concentration-dependent shift of the target mRNA, starting at a 0.3:1 ratio of ASO:RNA	44.3 °C and 44.3 ± 1.1 °C	+++	1.25 µM
RNA-F: 2′-fluorinated RNA 10mer ASO, sequence CTCATACTCT, targeting acpP −5 to +5 (all 2'-fluoro, backbone and T or U not given here)	>10 µM	slight growth retardation was observed at 5 and 10 µM	concentration-dependent shift of the target mRNA, starting at a 0.3:1 ratio of ASO:RNA		++	
RNA-MOE: 2′-methoxyethylated RNA 10mer ASO, sequence CTCATACTCT, targeting acpP −5 to +5 (all 2'-MOE, backbone and methylation of C not given here)	>10 µM	slight growth retardation was observed at 5 and 10 µM	concentration-dependent shift of the target mRNA, starting at a 0.3:1 ratio of ASO:RNA		++	
RNA-OMe: 2′-methylated RNA 10mer ASO, sequence CTCATACTCT, targeting acpP −5 to +5 (all 2'-O-methyl, backbone and T or U not given here)	>10 µM	lacked any antibacterial activity	did not interact with the target mRNA at any of the concentrations tested	48.3 °C and 48.3 ± 0.8 °C		
